Laboratory results reported in ChEMBL document CHEMBL3352655, “Synthesis and biological evaluation of norcantharidin derivatives as protein phosphatase-1 inhibitors” (Bioorg Med Chem Lett, 2015).
Active and inactive are the calls of the source. The calls are words filed in the database; no cut-off is given here.

Key:
A549 = assay: Cytotoxicity against human A549 cells after 48 hrs by MTT assay; format: functional, cell-based; conditions: A549, 48 h
HepG2 = assay: Cytotoxicity against human HepG2 cells after 48 hrs by MTT assay; format: functional, cell-based; conditions: HepG2, 48 h
HeLa [1] = assay: Cytotoxicity against human HeLa cells after 48 hrs by MTT assay; format: functional, cell-based
[2] = Cytotoxicity against human HCT8 cells after 48 hrs by MTT assay; format: functional, cell-based; conditions: HCT-8, 48 h
[3] = Cytotoxicity against human WI38 cells after 48 hrs by MTT assay; format: cell-based; conditions: WI-38, 48 h
[4] = Partition coefficient, log P of the compound; format: physicochemical; conditions: octanol/water
[5] = (§1) Inhibition of protein phosphatase-1 (unknown origin) using phosphopeptide (Lys-Arg-pThr-Ile-Arg) substrate incubated for 60 mins by colorimetric analysis based serine/threonine assay; design: species or system Homo sapiens
Homo sapiens = species: Homo sapiens; assay: as §1
Calf thymus DNA = assay: Binding affinity to calf thymus DNA assessed as reduction in fluorescence intensity of compound-DNA complex at 1 uM by fluorescence spectroscopy; format: nucleic-acid assay; conditions: Bos taurus
HeLa [6] = assay: Inhibition of microtubule formation in human HeLa cells at 5 uM after 24 hrs by DAPI staining based immunofluorescence assay; format: functional, cell-based
HeLa [7] = assay: Induction of cell shrinkage in human HeLa cells at 5 uM after 24 hrs by DAPI staining based immunofluorescence assay; format: functional
HeLa [8] = assay: Induction of nuclear fragmentation in human HeLa cells at 5 uM after 24 hrs by DAPI staining based immunofluorescence assay; format: functional, cell-based
HeLa [9] = assay: Induction of nuclear condensation in human HeLa cells at 5 uM after 24 hrs by DAPI staining based immunofluorescence assay; format: functional, cell-based

| Compound | logP [4] | IC50 [5] | inhibition (Homo sapiens) | Activity (Calf thymus DNA) | IC50 (A549) | IC50 (HepG2) | IC50 (HeLa [1]) | IC50 [2] | IC50 [3] | inhibition (HeLa [6]) | Activity (HeLa [7]) | Activity (HeLa [8]) | Activity (HeLa [9]) |
| --- | --- | --- | --- | --- | --- | --- | --- | --- | --- | --- | --- | --- | --- |
| O=C(Nc1ccc(S(=O)(=O)N2CCOCC2)cc1)C1C(C(=O)O)[C@H]2CC[C@@H]1O2 (stereo not given in full) | 0.4 | – | – | – | 24.2 µM | 19.3 µM | 17.2 µM | 31.3 µM | 48.8 µM | – | – | – | – |
| CCOC(=O)Cc1csc(NC(=O)C2C(C(=O)O)[C@H]3CC[C@@H]2O3)n1 (stereo not given in full) | 0.8 | – | – | – | > 100 µM | > 100 µM | > 100 µM | > 100 µM | > 100 µM | – | – | – | – |
| O=C(Nc1ccc(S(=O)(=O)NC2CC2)cc1)C1C(C(=O)O)[C@H]2CC[C@@H]1O2 (stereo not given in full) | 0.2 | – | – | – | 34.3 µM | 26.2 µM | 20.9 µM | 28.3 µM | 52.1 µM | – | – | – | – |
| O=C1OC(=O)C2C3CCC(O3)C12 (stereo not given) [DEMETHYL-CANTHARIDIN] | 0.7 | 2.6 µM | – | – | 12.1 µM | 24.7 µM | 12.4 µM | 28.4 µM | 26.7 µM | – | – | – | – |
| CCN1CCN(S(=O)(=O)c2ccc(NC(=O)C3C(C(=O)O)[C@H]4CC[C@@H]3O4)cc2)CC1 (stereo not given in full) | 0.4 | – | – | – | 28.4 µM | 20.2 µM | 15.7 µM | 27.4 µM | 73.1 µM | – | – | – | – |
| O=C1[C@@H]2[C@H](C(=O)N1c1ccc(S(=O)(=O)N3CCN(c4ccc(F)cc4)CC3)cc1)[C@@H]1CC[C@H]2O1 | 1.4 | 2.3 µM | – | – | 25.8 µM | 25.6 µM | 18.6 µM | 32.1 µM | 51.8 µM | – | – | – | – |
| O=C1[C@@H]2[C@H](C(=O)N1c1ccc(S(=O)(=O)N3CCOCC3)cc1)[C@@H]1CC[C@H]2O1 | 0.9 | – | – | – | 39.2 µM | 28.7 µM | 16.3 µM | 43.5 µM | 52.1 µM | – | – | – | – |

Now from value to compound, other results behind:

| logP [4] | IC50 [5] | inhibition (Homo sapiens) | Activity (Calf thymus DNA) | Compound | IC50 (A549) | IC50 (HepG2) | IC50 (HeLa [1]) | IC50 [2] | IC50 [3] | inhibition (HeLa [6]) | Activity (HeLa [7]) | Activity (HeLa [8]) | Activity (HeLa [9]) |
| --- | --- | --- | --- | --- | --- | --- | --- | --- | --- | --- | --- | --- | --- |
| 0.2 | – | – | – | O=C(Nc1ccc(S(=O)(=O)NC2CCCC2)cc1)C1C(C(=O)O)[C@H]2CC[C@@H]1O2 (stereo not given in full) | 20.1 µM | 22.3 µM | 17.6 µM | 30.2 µM | 59 µM | – | – | – | – |
| 0.6 | 0.2 µM | Dose-dependent effect | Active | O=C(Nc1ccc(S(=O)(=O)N2CCN(c3ccc(F)cc3)CC2)cc1)C1C(C(=O)O)[C@H]2CC[C@@H]1O2 (single isomer, unassigned) | 18.4 µM | 14.4 µM | 6.3 µM | 16.6 µM | 50.2 µM | Active | Active | Active | Active |
| 1.1 | – | – | – | O=C1[C@@H]2[C@H](C(=O)N1c1ccc(S(=O)(=O)NC3CCCC3)cc1)[C@@H]1CC[C@H]2O1 | 32.5 µM | 23.5 µM | 20.7 µM | 32.8 µM | 40.3 µM | – | – | – | – |
| 0.2 | – | – | – | O=C(Nc1ccc(S(=O)(=O)NC2CCCCC2)cc1)C1C(C(=O)O)[C@H]2CC[C@@H]1O2 (stereo not given in full) | 36.2 µM | 22.5 µM | 18.7 µM | 31 µM | 62.5 µM | – | – | – | – |
